Test results taken from BindingDB's records for doi:10.1016/j.chembiol.2016.02.015 (Max Planck Institute of Molecular Physiology, 2016).

Legend:
[1] = biological target: Casein kinase I isoform alpha (Homo sapiens, UniProt P48729); assay: Radiometric-Based Assay (CK1α)
Procedure: Single-point measurements analyses and subsequent dose-dependent investigations of selected pteridine derivatives for inhibition of CK1α were performed at Reaction Biology (USA) using a radiometric-based assay and ATP concentration of 10 µM. For more details related to the experimental conditions employed please consult the following websites: http://www.reactionbiology.com/webapps/site/KinaseDetail.aspx.

[2] = biological target: Casein kinase I isoform delta (Homo sapiens, UniProt P48730); assay: KinaseGlo Plus Luminescent Assay; conditions: pH 7.5
Sequence of Casein kinase I isoform delta (P48730 whole entry, canonical isoform): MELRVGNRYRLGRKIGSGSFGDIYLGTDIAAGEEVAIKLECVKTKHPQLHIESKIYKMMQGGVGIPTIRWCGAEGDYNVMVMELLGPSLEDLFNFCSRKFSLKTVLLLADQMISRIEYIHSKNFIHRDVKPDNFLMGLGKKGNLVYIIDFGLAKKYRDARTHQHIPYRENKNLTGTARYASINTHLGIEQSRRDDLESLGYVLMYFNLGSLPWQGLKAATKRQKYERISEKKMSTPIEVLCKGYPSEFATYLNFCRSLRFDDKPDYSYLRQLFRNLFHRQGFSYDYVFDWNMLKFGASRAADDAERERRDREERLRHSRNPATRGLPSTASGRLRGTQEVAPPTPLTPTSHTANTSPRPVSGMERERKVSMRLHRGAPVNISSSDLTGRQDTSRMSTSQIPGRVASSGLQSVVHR
Procedure: (§1) A stock solution of 5 % DMSO (BioReagent for molecular biology, Sigma Aldrich) in water was prepared. The CK1 substrate peptide RRKDLHDDEEDEAMSITA (Jena Bioscience, cat. no. PE-206, 2 mM stock solution in water) was diluted in water to a final concentration of 250 μM. CK1δ or CK1Ɛ kinases were diluted with CK1 dilution buffer to 50 ng / µL. In addition, fresh Reaction buffer was prepared containing 250 mM Tris-HCl (pH 7.5), 50 mM MgCl2, 5 mM DTT and 0.5 mg / mL bovine serum albumin (BSA). Compounds were serially diluted in 5 % DMSO solution to the desired concentrations (maximal concentration employed in the assay was 50 µM). Additional samples included blank sample containing Reaction buffer, water and CK1δ / CK1Ɛ kinase and control sample containing Reaction buffer, CK1 substrate peptide and CK1δ / CK1Ɛ kinase. CK1 substrate peptide, Reaction buffer and CK1δ / CK1Ɛ kinase stock solutions were mixed in 1:1:1 ratio. 6 μL of this mixtur

[3] = biological target: Casein kinase I isoform epsilon (Homo sapiens, UniProt P49674); assay: KinaseGlo Plus Luminescent Assay; conditions: pH 7.5
Sequence of Casein kinase I isoform epsilon (P49674 whole entry, canonical isoform): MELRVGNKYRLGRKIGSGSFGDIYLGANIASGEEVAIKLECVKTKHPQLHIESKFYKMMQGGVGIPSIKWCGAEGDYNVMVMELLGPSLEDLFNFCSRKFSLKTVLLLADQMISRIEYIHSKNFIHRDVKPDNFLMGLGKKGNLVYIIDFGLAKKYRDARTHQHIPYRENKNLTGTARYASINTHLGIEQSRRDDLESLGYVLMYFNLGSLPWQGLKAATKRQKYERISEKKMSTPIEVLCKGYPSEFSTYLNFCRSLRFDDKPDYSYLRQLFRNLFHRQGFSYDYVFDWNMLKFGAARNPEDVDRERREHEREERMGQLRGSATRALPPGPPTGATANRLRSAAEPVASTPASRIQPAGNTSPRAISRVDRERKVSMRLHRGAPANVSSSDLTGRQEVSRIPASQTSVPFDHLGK
Procedure: as §1

[4] = biological target: T1, Epidermal growth factor receptor [1-973] (Homo sapiens, UniProt P00533); assay: Radiometric-Based Assay (Epiblastin A)
T1 construct: 1-973
T1 sequence (P00533 1-973): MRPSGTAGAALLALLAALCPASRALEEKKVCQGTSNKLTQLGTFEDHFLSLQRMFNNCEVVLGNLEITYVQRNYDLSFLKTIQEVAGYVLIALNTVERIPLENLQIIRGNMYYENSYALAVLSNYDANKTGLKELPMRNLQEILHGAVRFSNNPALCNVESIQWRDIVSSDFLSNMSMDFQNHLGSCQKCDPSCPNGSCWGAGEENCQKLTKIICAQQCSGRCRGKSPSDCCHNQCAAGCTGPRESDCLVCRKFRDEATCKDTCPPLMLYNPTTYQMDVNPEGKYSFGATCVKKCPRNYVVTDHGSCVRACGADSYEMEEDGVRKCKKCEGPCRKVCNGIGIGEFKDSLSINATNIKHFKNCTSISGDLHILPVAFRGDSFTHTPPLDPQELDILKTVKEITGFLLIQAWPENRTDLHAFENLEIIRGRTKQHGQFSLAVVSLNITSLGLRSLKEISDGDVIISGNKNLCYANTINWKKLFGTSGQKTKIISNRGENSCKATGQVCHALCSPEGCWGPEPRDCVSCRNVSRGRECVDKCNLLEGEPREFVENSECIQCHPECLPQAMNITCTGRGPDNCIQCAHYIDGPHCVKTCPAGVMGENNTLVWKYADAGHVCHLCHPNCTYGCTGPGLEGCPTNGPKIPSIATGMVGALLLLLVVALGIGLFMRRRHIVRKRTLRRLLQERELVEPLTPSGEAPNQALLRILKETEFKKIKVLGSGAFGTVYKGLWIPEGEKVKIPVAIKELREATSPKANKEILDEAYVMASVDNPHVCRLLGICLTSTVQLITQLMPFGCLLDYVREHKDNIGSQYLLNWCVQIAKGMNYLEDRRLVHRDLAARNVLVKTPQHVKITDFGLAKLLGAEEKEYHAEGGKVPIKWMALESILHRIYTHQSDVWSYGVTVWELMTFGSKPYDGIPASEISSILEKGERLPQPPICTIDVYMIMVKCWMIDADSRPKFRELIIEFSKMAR
Source text: (§2) Dose-dependent investigations of Epiblastin A against BrSK1, Egfr, eEF2k, Mknk2, Ripk2 and Stk10 have been performed under the same experimental setup, i.e. at Km-ATP value. Half-maximal inhibitory concentrations (IC50) were obtained by fitting the obtained data with three parameter nonlinear regression analysis using GraphPad Prism version 6.00 for Windows (GraphPad Software, USA). For more details related to the experimental conditions employed at Eurofins please consult the following website: http://www.eurofins.com/pharma-services/pharma-discovery-services/services/in-vitropharmacology/kinases/biochemical.aspx

[5] = biological target: T2, Eukaryotic elongation factor 2 kinase (Homo sapiens, UniProt O00418); assay: Radiometric-Based Assay (Epiblastin A)
T2 sequence (O00418 whole entry): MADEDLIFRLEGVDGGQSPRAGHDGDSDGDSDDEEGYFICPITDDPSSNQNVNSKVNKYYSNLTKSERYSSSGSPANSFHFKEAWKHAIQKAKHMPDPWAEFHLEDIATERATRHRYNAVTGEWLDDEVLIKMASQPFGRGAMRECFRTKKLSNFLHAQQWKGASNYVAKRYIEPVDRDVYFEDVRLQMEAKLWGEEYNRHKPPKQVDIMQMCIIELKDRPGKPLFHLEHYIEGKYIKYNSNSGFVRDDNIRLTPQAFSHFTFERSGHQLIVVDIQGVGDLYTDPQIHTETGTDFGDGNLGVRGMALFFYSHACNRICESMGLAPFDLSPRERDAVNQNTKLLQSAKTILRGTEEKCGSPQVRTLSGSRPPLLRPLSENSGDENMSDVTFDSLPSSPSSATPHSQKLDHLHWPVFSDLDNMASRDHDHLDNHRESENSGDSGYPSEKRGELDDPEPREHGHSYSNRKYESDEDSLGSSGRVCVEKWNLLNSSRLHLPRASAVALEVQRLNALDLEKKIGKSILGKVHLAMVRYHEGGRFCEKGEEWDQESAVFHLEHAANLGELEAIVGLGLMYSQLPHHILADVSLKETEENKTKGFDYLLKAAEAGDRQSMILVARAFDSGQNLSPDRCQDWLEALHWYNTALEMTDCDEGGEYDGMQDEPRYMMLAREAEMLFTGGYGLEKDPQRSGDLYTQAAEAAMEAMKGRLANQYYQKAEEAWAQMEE
Source text: as §2

[6] = biological target: MAP kinase-interacting serine/threonine-protein kinase 2 (Homo sapiens, UniProt Q9HBH9); assay: Radiometric-Based Assay (Epiblastin A)
Sequence of MAP kinase-interacting serine/threonine-protein kinase 2 (Q9HBH9 whole entry): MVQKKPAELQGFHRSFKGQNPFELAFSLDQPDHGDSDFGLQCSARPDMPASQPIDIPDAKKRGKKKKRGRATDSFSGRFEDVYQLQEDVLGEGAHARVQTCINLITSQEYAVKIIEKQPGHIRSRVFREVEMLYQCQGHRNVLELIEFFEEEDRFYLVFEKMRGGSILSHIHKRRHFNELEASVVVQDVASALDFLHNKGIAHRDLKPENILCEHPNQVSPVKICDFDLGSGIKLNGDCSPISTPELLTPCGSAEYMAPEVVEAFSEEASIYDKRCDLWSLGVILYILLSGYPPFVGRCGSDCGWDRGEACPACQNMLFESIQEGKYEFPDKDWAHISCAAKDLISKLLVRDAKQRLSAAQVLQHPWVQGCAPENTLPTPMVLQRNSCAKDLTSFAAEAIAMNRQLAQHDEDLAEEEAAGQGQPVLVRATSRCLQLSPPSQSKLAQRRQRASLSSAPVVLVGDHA
Source text: as §2

[7] = biological target: Receptor-interacting serine/threonine-protein kinase 2 (Homo sapiens, UniProt O43353); assay: Radiometric-Based Assay (Epiblastin A)
Sequence of Receptor-interacting serine/threonine-protein kinase 2 (O43353 whole entry): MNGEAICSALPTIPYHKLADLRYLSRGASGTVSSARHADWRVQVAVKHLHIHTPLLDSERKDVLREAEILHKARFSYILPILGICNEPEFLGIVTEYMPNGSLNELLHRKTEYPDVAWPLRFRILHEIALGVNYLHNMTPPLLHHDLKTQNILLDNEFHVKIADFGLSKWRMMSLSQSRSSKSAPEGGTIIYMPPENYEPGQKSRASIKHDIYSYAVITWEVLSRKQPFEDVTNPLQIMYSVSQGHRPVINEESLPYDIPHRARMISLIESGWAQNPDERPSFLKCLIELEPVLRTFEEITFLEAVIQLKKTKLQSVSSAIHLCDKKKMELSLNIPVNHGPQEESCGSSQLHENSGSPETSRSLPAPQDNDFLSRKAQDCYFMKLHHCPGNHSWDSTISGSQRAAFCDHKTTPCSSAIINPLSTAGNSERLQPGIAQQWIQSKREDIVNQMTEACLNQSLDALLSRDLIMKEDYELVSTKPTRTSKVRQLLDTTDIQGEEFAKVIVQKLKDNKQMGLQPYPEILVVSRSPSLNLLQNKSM
Source text: as §2

[8] = biological target: T3, Serine/threonine-protein kinase BRSK1 (Homo sapiens, UniProt Q8TDC3); assay: Radiometric-Based Assay (Epiblastin A)
T3 sequence (Q8TDC3 whole entry): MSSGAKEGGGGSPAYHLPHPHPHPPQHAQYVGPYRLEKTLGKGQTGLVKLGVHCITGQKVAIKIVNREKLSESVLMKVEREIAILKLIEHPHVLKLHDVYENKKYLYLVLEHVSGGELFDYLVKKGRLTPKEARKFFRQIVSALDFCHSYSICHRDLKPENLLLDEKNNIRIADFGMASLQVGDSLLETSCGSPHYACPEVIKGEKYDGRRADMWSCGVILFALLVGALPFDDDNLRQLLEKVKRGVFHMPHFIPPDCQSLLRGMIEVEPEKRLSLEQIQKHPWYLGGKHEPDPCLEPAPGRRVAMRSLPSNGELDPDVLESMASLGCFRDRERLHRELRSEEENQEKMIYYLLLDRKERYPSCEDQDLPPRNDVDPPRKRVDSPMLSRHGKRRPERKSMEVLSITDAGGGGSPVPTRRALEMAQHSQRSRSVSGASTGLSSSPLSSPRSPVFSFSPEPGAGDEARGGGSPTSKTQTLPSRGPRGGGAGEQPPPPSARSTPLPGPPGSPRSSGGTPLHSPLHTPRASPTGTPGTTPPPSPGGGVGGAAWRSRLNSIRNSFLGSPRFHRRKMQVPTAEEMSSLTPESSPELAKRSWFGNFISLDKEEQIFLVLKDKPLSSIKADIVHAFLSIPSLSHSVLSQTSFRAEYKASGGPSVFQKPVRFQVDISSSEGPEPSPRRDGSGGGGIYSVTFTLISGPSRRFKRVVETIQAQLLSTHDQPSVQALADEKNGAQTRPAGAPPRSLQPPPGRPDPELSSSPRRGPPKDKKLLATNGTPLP
Source text: as §2

Sequence of Casein kinase I isoform alpha (P48729 whole entry, canonical isoform): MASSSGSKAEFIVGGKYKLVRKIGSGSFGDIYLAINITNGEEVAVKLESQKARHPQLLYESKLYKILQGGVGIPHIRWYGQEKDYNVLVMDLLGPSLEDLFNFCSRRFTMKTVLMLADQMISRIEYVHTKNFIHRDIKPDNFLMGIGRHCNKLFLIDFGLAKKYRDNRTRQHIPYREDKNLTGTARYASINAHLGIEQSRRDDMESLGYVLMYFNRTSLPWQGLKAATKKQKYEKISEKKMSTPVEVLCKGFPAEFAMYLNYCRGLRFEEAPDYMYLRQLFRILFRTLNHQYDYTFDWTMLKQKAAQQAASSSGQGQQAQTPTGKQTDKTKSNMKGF

IC50 [1] [µM] | IC50 [2] [µM] | IC50 [3] [µM] | further results | Compound
5.6 | 2.8 | 0.6 | – | Nc1nc(N)c2nc(-c3csc4ccccc34)c(N)nc2n1 [6-(1-benzothiophen-3-yl)pteridine-2,4,7-triamine (31)]
55.6 | – | 4.3 | – | Nc1nc(N)c2nc(-c3ccc(Cl)cc3Cl)c(N)nc2n1 [6-(2,4-dichlorophenyl)pteridine-2,4,7-triamine (25)]
– | – | 38.4 | – | Nc1nc(N)c2nc(-c3cc(F)ccc3F)c(N)nc2n1 [6-(2,5-difluorophenyl)pteridine-2,4,7-triamine (28)]
– | – | 38.9 | – | Nc1nc(N)c2nc(-c3c(Cl)cccc3Cl)c(N)nc2n1 [6-(2,6-dichlorophenyl)pteridine-2,4,7-triamine (24)]
– | 35.7 | 51.5 | – | Nc1nc(N)c2nc(-c3c(F)cccc3F)c(N)nc2n1 [6-(2,6-difluorophenyl)pteridine-2,4,7-triamine (27)]
– | – | 28.3 | – | Nc1nc(N)c2nc(-c3ccccc3F)c(N)nc2n1 [6-(2-fluorophenyl)pteridine-2,4,7-triamine (23)]
– | 32.4 | 12.4 | – | Nc1cccc(-c2nc3c(N)nc(N)nc3nc2N)c1 [6-(3-aminophenyl)pteridine-2,4,7-triamine (21)]
9.3 | 2.5 | – | – | Nc1nc(N)c2nc(-c3cccc(Br)c3)c(N)nc2n1 [6-(3-bromophenyl)pteridine-2,4,7-triamine (18)]
33.3 | 61.8 | 14.4 | – | Nc1nc(N)c2nc(-c3cccc(F)c3)c(N)nc2n1 [6-(3-fluorophenyl)pteridine-2,4,7-triamine (16)]
– | 12.3 | 26.3 | – | COc1cccc(-c2nc3c(N)nc(N)nc3nc2N)c1 [6-(3-methoxyphenyl)pteridine-2,4,7-triamine (20)]
– | 81.2 | – | – | Nc1ccc(-c2nc3c(N)nc(N)nc3nc2N)cc1 [6-(4-aminophenyl)pteridine-2,4,7-triamine (10)]
– | 16.1 | 15.5 | – | Nc1nc(N)c2nc(-c3cccnc3)c(N)nc2n1 [6-(pyridin-3-yl)pteridine-2,4,7-triamine (33)]
14.2 | 24.4 | 8.1 | – | Nc1nc(N)c2nc(-c3cccs3)c(N)nc2n1 [6-(thiophen-2-yl)pteridine-2,4,7-triamine (32)]
– | 20.2 | – | – | Cc1cccc(-c2nc3c(N)nc(N)nc3nc2N)c1 [6-m-Tolyl-pteridine-2,4,7-triamine]
29.5 | 80.6 | 6 | – | Nc1nc(N)c2nc(-c3ccccc3)cnc2n1 [6-phenylpteridine-2,4-diamine (35)]
5.5 | 9.6 | 6.6 | – | Nc1nc(N)c2nc(-c3cccc(Oc4ccccc4)c3)c(Cc3ccccc3)nc2n1 [7-benzyl-6-(3-phenoxyphenyl)pteridine-2,4-diamine (36)]
8.9 | 0.5 | 4.7 | IC50 [4]: 8.3 µM; IC50 [5]: 27.4 µM; IC50 [6]: 45.1 µM; IC50 [7]: 38.1 µM; IC50 [8]: 24.2 µM | Nc1nc(N)c2nc(-c3cccc(Cl)c3)c(N)nc2n1 [Epiblastin A]
36.8 | 36.4 | 26.8 | – | Nc1nc(N)c2nc(-c3ccccc3)c(N)nc2n1 [Pteridine deriv. 11]
